Among the data in PubChem BioAssay AID328 (DTP/NCI, 2004) are T/C values, retold here.

The subject of the assay is BDF1 mice, P388 leukemia ip, median survival T/C. The assay is described as follows: NCI In Vivo Anticancer Drug Screen. Data for tumor model P388 Leukemia (intraperitoneal) in B6D2F1 (BDF1) mice. Conditions: endpoint: median survival time, higher = longer survival. A digest of the protocol: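 Read-out is survival of treated animals expressed relative to the vehicle group, as a T/C ratio.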

The mark [1] stands for this setting: dose: 12.5 mg/kg/injection, schedule: Q01DX009 (ip), vehicle: saline.
Where [2] appears, read: dose: 25.0 mg/kg/injection, schedule: Q01DX009 (ip), vehicle: saline.
Where [3] appears, read: dose: 50.0 mg/kg/injection, schedule: Q01DX009 (ip), vehicle: saline.
Setting [4] is: dose: 50.0 mg/kg/injection, schedule: Q04DX003 (ip), vehicle: saline.
[5] abbreviates: dose: 100.0 mg/kg/injection, schedule: Q01DX009 (ip), vehicle: saline.
Setting [6] is: dose: 100.0 mg/kg/injection, schedule: Q04DX003 (ip), vehicle: saline.
Where [7] appears, read: dose: 200.0 mg/kg/injection, schedule: Q01DX009 (ip), vehicle: saline.
[8] abbreviates: dose: 200.0 mg/kg/injection, schedule: Q04DX003 (ip), vehicle: saline.
The mark [9] stands for this setting: dose: 50.0 mg/kg/injection, schedule: Q01DX009 (ip), vehicle: saline with Tween-80.
Where [10] appears, read: dose: 100.0 mg/kg/injection, schedule: Q01DX009 (ip), vehicle: saline with Tween-80.
Where [11] appears, read: dose: 200.0 mg/kg/injection, schedule: Q01DX009 (ip), vehicle: saline with Tween-80.
Where [12] appears, read: dose: 12.5 mg/kg/injection, schedule: Q01DX009 (ip), vehicle: Klucel (hydroxypropylcellulose) (HPC).
[13] abbreviates: dose: 25.0 mg/kg/injection, schedule: Q01DX009 (ip), vehicle: Klucel (hydroxypropylcellulose) (HPC).
The mark [14] stands for this setting: dose: 100.0 mg/kg/injection, schedule: Q04DX003 (ip), vehicle: Klucel (hydroxypropylcellulose) (HPC).
[15] abbreviates: dose: 200.0 mg/kg/injection, schedule: Q04DX003 (ip), vehicle: Klucel (hydroxypropylcellulose) (HPC).
The mark [16] stands for this setting: dose: 25.0 mg/kg/injection, schedule: Q01DX009 (ip), vehicle: saline with Tween-80.
Setting [17] is: dose: 12.5 mg/kg/injection, schedule: Q01DX009 (ip), vehicle: saline with Tween-80.

“And” between values parts separate entries of the source, which are not always exact repeats. Identical values can stand only once. Toxic doses and inconclusive results are not listed.

In the case of `COc1ccc2c(c1)N(C)CCCC2=O`, the T/C by setting is: (dose: 3.12 mg/kg/injection, schedule: Q01DX009 (ip), vehicle: saline) 91 % of control; (dose: 6.25 mg/kg/injection, schedule: Q01DX009 (ip), vehicle: saline) 103 % of control; under setting [1], 91 % of control; under setting [2], 87 % of control and 91 % of control; under setting [3], 108 % of control and 113 % of control; under setting [4], 99 % of control. Also, the T/C by setting is: under setting [5], 92 % of control; under setting [6], 103 % of control; under setting [7], 89 % of control; under setting [8], 99 % of control.
For `CCOC(=O)C1=C(O)Cc2c(nc3ccc(C)cn3c2=O)C1`, the T/C by setting is: under setting [9], 100 % of control; under setting [10], 96 % of control; under setting [11], 98 % of control.
Turning to `CCN1c2ccccc2CC(CCCN(C)C)(C(N)=O)c2ccccc21` (stereo unspecified), the T/C was 97 % of control under setting [5] and 98 % of control under setting [7].
For `CC(=O)OC1=NC(C)c2c1cc(OC(C)=O)[nH]c2=O` (stereo unspecified), the T/C (dose: 6.25 mg/kg/injection, schedule: Q01DX009 (ip), vehicle: Klucel (hydroxypropylcellulose) (HPC)) is 88 % of control; the T/C under setting [12] is 96 % of control; the T/C under setting [13] was 96 % of control; the T/C under setting [14] was 112 % of control; the T/C (dose: 133.0 mg/kg/injection, schedule: Q04DX003 (ip), vehicle: Klucel (hydroxypropylcellulose) (HPC)) is 121 % of control.
For `N#CC(C#N)=Cc1cccc2ccccc12`, the T/C was 104 % of control under setting [14]; 100 % of control under setting [15]; 113 % of control (dose: 400.0 mg/kg/injection, schedule: Q04DX003 (ip), vehicle: Klucel (hydroxypropylcellulose) (HPC)).
Regarding `CC[N+](CC)(CC)CCCNC1=CC(=O)C(NCCC[N+](CC)(CC)CC)=CC1=O`, the T/C is 99 % of control (dose: 0.39 mg/kg/injection, schedule: Q04DX003 (ip), vehicle: saline) and 99 % of control (dose: 0.78 mg/kg/injection, schedule: Q04DX003 (ip), vehicle: saline).
As for `CC1=CC(c2ccccc2)=CC(C)(C)C1` (tested in a mixture with another compound), the T/C was 104 % of control (dose: 25.0 mg/kg/injection, schedule: Q01DX009 (ip), vehicle: saline sonified); 109 % of control (dose: 50.0 mg/kg/injection, schedule: Q01DX009 (ip), vehicle: saline sonified); 109 % of control (dose: 100.0 mg/kg/injection, schedule: Q01DX009 (ip), vehicle: saline sonified).
`CC(=O)NC(C)C(=O)NC(CC(=O)O)C(=O)O` (stereo unspecified): the T/C was 97 % of control (dose: 50.0 mg/kg/injection, schedule: Q01DX005 (ip), vehicle: saline); 100 % of control (dose: 100.0 mg/kg/injection, schedule: Q01DX005 (ip), vehicle: saline); 103 % of control (dose: 200.0 mg/kg/injection, schedule: Q01DX005 (ip), vehicle: saline).
In the case of `COC(=O)C1C(O)C(C)C(O)C(C)/C=C\C=C(C)C(=O)Nc2c(C)c(OC(C)=O)c3c(c2O)C(=O)C(C)=C2OCOC(=C23)C(C)=CC(C)(O)C(O)C(C)C1O` (stereo unspecified), the T/C by setting is: (dose: 100.0 mg/kg/injection, schedule: Q01DX009 (ip), vehicle: Klucel (hydroxypropylcellulose) (HPC)) 115 % of control; (dose: 200.0 mg/kg/injection, schedule: Q01DX009 (ip), vehicle: Klucel (hydroxypropylcellulose) (HPC)) 108 % of control and 115 % of control; (dose: 400.0 mg/kg/injection, schedule: Q01DX009 (ip), vehicle: Klucel (hydroxypropylcellulose) (HPC)) 106 % of control.
For the compound `Cc1cc(Cl)n[nH]1`, the T/C under setting [16] was 98 % of control.
With `CN(C)CCNCc1c[nH]c(=O)[nH]c1=O`, the T/C was 97 % of control under setting [9], 94 % of control under setting [10] and 93 % of control under setting [11].
For `CC(=O)Oc1ccc(/C=N/NC(N)=S)nc1`, the T/C is, setting by setting: (dose: 0.18 mg/kg/injection, schedule: Q01DX009 (ip), vehicle: saline with Tween-80) 123 % of control; (dose: 0.27 mg/kg/injection, schedule: Q01DX009 (ip), vehicle: saline with Tween-80) 116 % of control; (dose: 0.4 mg/kg/injection, schedule: Q01DX009 (ip), vehicle: saline with Tween-80) 176 % of control; (dose: 0.6 mg/kg/injection, schedule: Q01DX009 (ip), vehicle: saline with Tween-80) 123 % of control; (dose: 44.0 mg/kg/injection, schedule: Q01DX009 (ip), vehicle: saline with Tween-80) 177 % of control; (dose: 66.0 mg/kg/injection, schedule: Q01DX009 (ip), vehicle: saline with Tween-80) 200 % of control. Further, the T/C by setting is: under setting [10], 177 % of control and 220 % of control; (dose: 100.0 mg/kg/injection, schedule: Q04DX003 (ip), vehicle: saline with Tween-80) 107 % of control; (dose: 150.0 mg/kg/injection, schedule: Q01DX009 (ip), vehicle: saline with Tween-80) 90 % of control; under setting [11], 105 % of control; (dose: 200.0 mg/kg/injection, schedule: Q04DX003 (ip), vehicle: saline with Tween-80) 111 % of control; (dose: 400.0 mg/kg/injection, schedule: Q04DX003 (ip), vehicle: saline with Tween-80) 115 % of control.
Regarding `O=[N+]([O-])c1ccc(/C=C/c2nccs2)o1`, the T/C runs as follows: under setting [14], 100 % of control; under setting [15], 103 % of control.
Turning to `CC(O)C(O)C(N)CC=O` (stereo unspecified), the T/C was 100 % of control and 110 % of control (dose: 1.25 mg/kg/injection, schedule: Q01DX001 (ip), vehicle: saline); 100 % of control and 110 % of control (dose: 2.5 mg/kg/injection, schedule: Q01DX001 (ip), vehicle: saline); 100 % of control and 110 % of control (dose: 5.0 mg/kg/injection, schedule: Q01DX001 (ip), vehicle: saline); 100 % of control and 105 % of control (dose: 10.0 mg/kg/injection, schedule: Q01DX001 (ip), vehicle: saline).
As to `CC(C)(C)OC(=O)NC(Cc1cncn1Cc1ccccc1)C(=O)NC(Cc1c[nH]c2ccccc12)C(=O)OCc1ccccc1` (stereo unspecified), the T/C is, setting by setting: under setting [4], 105 % of control; under setting [6], 106 % of control; under setting [8], 102 % of control; (dose: 400.0 mg/kg/injection, schedule: Q04DX003 (ip), vehicle: saline) 100 % of control.
As for `O=C(O)CSC(=S)c1ccccc1`, the T/C is 118 % of control under setting [16] and 121 % of control under setting [10].
For `CCCCCCC(=O)/C=C/c1cc(OC)ccc1OC`, the T/C under setting [17] was 100 % of control, the T/C under setting [16] was 95 % of control, the T/C under setting [9] is 104 % of control and the T/C under setting [10] is 104 % of control.
Consider `Oc1c(I)cc(Cl)c2cccnc12`, for which the T/C by setting is: under setting [12], 115 % of control; under setting [13], 115 % of control; (dose: 50.0 mg/kg/injection, schedule: Q01DX009 (ip), vehicle: Klucel (hydroxypropylcellulose) (HPC)) 120 % of control.
In the case of `CCCCCCCCCCCCCC[N+]1([O-])CCCC1`, the T/C is 108 % of control under setting [1], 100 % of control under setting [2] and 95 % of control under setting [3].
As to `CC(N)C(=O)O` (stereo unspecified), the T/C under setting [5] is 91 % of control; the T/C under setting [6] is 88 % of control; the T/C under setting [7] is 108 % of control; the T/C under setting [8] is 100 % of control; the T/C (dose: 400.0 mg/kg/injection, schedule: Q01DX009 (ip), vehicle: saline) is 100 % of control.
On to `O=C(CCl)Oc1ccc(-c2ccccc2)cc1Br`, for which the T/C reads like this: under setting [9], 105 % of control; under setting [10], 102 % of control; under setting [11], 103 % of control; (dose: 400.0 mg/kg/injection, schedule: Q01DX009 (ip), vehicle: saline with Tween-80) 88 % of control.
As for `CCC(C)NCCNCCNC(C)CC` (stereo unspecified), the T/C was 95 % of control (dose: 6.25 mg/kg/injection, schedule: Q04DX003 (ip), vehicle: saline); 95 % of control (dose: 12.5 mg/kg/injection, schedule: Q04DX003 (ip), vehicle: saline); 104 % of control (dose: 25.0 mg/kg/injection, schedule: Q04DX003 (ip), vehicle: saline).
Regarding `CNc1nc2c(N)ncnc2n1C1OC(CO)C(O)C1O` (stereo unspecified), the T/C is, setting by setting: (dose: 6.25 mg/kg/injection, schedule: Q01DX009 (ip), vehicle: saline with Tween-80) 105 % of control; under setting [17], 123 % of control.
